These results are taken from patent US20090221530A1, “Relaxase Modulators and Methods of Using Same” (priority 2005, published 2009).

In test [1] the test system is DNA conjugation from F+ (JS10) cells to F− (JS4) cells. The test is described as follows: Mating assay (conjugative DNA transfer). The format is cell-based, E. coli. The note with it: Escherichia coli, F+ (JS10) donors to F− (JS4) recipients; FIG. 4D; read-out: EC50 of inhibition of DNA conjugation. Here is the method:
Mating assays were performed as described (Matson et al., 2001). Briefly, the donor strain JS10 contains pOX38T, a mini-F-plasmid capable of conjugative transfer, which also carries a Tet resistance gene, while the recipient strain JS4 is F− and Str^r. Donor and recipient strains from saturated overnight cultures grown under antibiotic selection were diluted 1:50 into LB and grown to an OD600 of approximately 0.6 in the absence of selection at 37° C. Donors and recipients were then mixed at a ratio of one donor to nine recipients in the presence of the desired concentrations of pNp (e.g., 10, 100 μM, 1, 10 mM) and incubated at 37° C. for five minutes. Following this incubation, the mating mixtures were diluted 1:10 into LB containing the desired concentration of pNp and incubated for a further 30 minutes. Following mating, the mixtures were vortexed to disrupt mating pairs and serially diluted into 0.9% sterile saline. Dilutions, predicted to result in 300-500 colonies on positive control plates, were plated on LB-agar plates containing both streptomycin and tetracycline in order to select for transconjugants and counter select for donors and unmated recipients. Eight replicate samples of each final dilution were plated, the colony counts culled for outliers at 95% confidence, and then averaged.

Test [2] deals with T1, F plasmid TraI N300 (Escherichia coli, UniProt P14565).
T1 construct: An amino-terminal 300 residue F plasmid TraI construct; made in house; host or cells: E. coli BL21 (DE3)/pLysS or HMS174 (DE3)/pLysS, vector pTYB2
Nature of the test: Fluorescence kinetic assay of oriT DNA cleavage and crossover by TraI N300. The format is biochemical, E. coli. Here is the method: Reaction Buffer: 6.42 mM MgCl2, 20.5% glycerol, 153.9 mM NaCl, and 51.3 mM Tris-HCl pH 7.5. Streptavidin Wash Buffer (Tris buffered saline, TBS/Tween): and 150 mM NaCl, 25 mM Tris-HCl pH 7.5, and 0.05% Tween-20. Stopping Buffer: 1.2% sodium-dodecyl sulfate (SDS), and 300 mM EDTA pH 10. TE Buffer: 1 mM EDTA, and 10 mM Tris-HCl pH 7.4. Fluorescence Buffer: 80% glycerol, 200 mM Tris-HCl pH 8.0. Short-term N300 stock (for storage at −20° C.): 50% Reaction Buffer, 49.8% glycerol, 0.2% long-term protein solution (84.6 nM final N300 concentration). All 5× stocks except Probe stocks were diluted in Reaction Buffer. 5× Enzyme Stock: 8.4 mL short-term N300 stock diluted to 2.02 nM N300. 5× Inhibitor Stocks: imidodiphosphate (pNp) at 0-50 nM in Reaction Buffer. 5× Substrate Stocks: oligonucleotides b29 and PCb31eco diluted to […] each, by 3-fold serial dilutions. 5× Probe Stocks: […] (1.2-fold molar excess) oligonucleotide downF in TE Buffer. All reactions and procedures involving downF were assembled or performed in darkened conditions. Solutions and microtiter plates containing downF were kept in foil-lined containers at all times to prevent photobleaching.
Two oriT derived oligonucleotides, b29 and PCb31eco, were designed for binding and cleavage by TraI based on past studies (see Oligonucleotides section herein; FIG. 4A). The overall method is modified from those described previously for the study of TraI and R388TrwC (Byrd et al., 2002; Grandoso et al., 2000; Matson and Morton, 1991). Reactions were assembled from 16 μL of 5× Substrate Stock, 16 μL of 5× Inhibitor Stock, and 32 μL of Reaction Buffer. 80 μL reactions were initiated with 16 μL of 5× Enzyme Stock and raised to 37° C. 10 μL samples were removed at eight time points (optimized to define timecourses) and stopped in 10 μL of Stopping Buffer at room temperature. Stopped reactions were placed on a 100° C. heat block for one minute, spiked with 2 μL of 5× Probe Stock while still hot, and incubated at 37° C. for 10 minutes (see Kinetic Assay Formulations for probe handling).
Samples were diluted to […] with Streptavidin Wash Buffer and transferred to Biobind Assembly streptavidin-coated microtiter plates (Thermo Electron Corporation, Waltham, Mass., U.S.A.) and incubated at 37° C. for 45 minutes. Plates were washed with at least 5-fold excess Streptavidin Wash Buffer (in an inverted position to prevent excess biotinylated species from transferring between wells). Wells were filled with 65 μL of Fluorescence Buffer for optimum 6-FAM™ fluorescence. Plates were read in a FLUOSTAR OPTIMA™ (BMG Labtech, Offenburg, Germany) with a 490 nm excitation and 520 nm emission filters (10 nm bandpass) with the gain optimized for maximum signal. The timecourses thus collected were designated Cleavage Courses. Plates were removed and irradiated with 306 nm ultraviolet radiation for 10 minutes to cleave the PC biotin linker. They were then washed inverted with at least 5-fold excess Streptavidin Wash Buffer, filled with 65 μL of Fluorescence Buffer, and again read as above. These timecourses were designated Cleavage+Crossover Courses (FIG. 4A).
All timecourses were fitted by nonlinear regression with un-weighted least-squares methods using SIGMAPLOT™ 8.0 (SYSTAT Software, Inc., Point Richmond, Calif., U.S.A.) (also used for graph construction). Timecourses with blanked signals in arbitrary fluorescence units were scaled by curve mean in groups of at least four replicates, culled for outliers, and averaged by time point. On average, one replicate time point was culled from each group of four used. The averaged curves were fitted to a simple, three-parameter exponential decay equation (Equation 1), time versus signal, and converted into units of concentration.
where t is time in seconds, y0+a is the initial signal, b is a constant that determines the shape of the curve. […]

Structures are written as SMILES. Read-outs that look alike come from different tables or passages of the source.

T1 sequence (P14565 1-306): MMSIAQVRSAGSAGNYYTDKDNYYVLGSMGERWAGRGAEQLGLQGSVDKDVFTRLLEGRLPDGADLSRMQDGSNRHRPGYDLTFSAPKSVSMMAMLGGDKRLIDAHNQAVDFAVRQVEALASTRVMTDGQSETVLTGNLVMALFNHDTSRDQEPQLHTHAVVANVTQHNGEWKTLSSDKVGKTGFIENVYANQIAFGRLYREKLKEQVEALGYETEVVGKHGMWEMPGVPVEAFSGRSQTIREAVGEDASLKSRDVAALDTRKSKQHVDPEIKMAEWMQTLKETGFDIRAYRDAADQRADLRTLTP

The term EC50 denotes the concentration giving half of the maximal effect. In the case of `O=P(O)(O)NP(=O)(O)O` [pNp, imidodiphosphate], in test [1], the EC50 was around 10000 nM. Moreover, the Ki in test [2] (Cleavage, C-B/E Direct Linear Plot, read-out: Kic) turned out to be 2.42 nM; in test [2] (Cleavage, C-B/E Direct Linear Plot, read-out: Kiu), 2.65 nM; in test [2] (Cleavage, M/M Nonlinear Regression, competitive inhibition constant, apparent, read-out: Kic), 2.3 ± 0.26 nM; in test [2] (Cleavage, M/M Nonlinear Regression, uncompetitive inhibition constant, apparent, read-out: Kiu), 3.17 ± 0.32 nM; in test [2] (Crossover, C-B/E Direct linear Plot, read-out: Kic), 1.59 nM; in test [2] (Crossover, C-B/E Direct linear Plot, read-out: Kiu), 3.24 nM. Besides, the Ki was 0.885 ± 0.543 nM in test [2] (Crossover, M/M Nonlinear Regression, read-out: Kic); 2.5 to 3 nM in test [2] (DNA cleavage, read-out: inhibition constants (Ki values) for both competitive and uncompetitive modes (Kic and Kiu)); 0.9 to 1.6 nM in test [2] (DNA crossover, read-out: Kic); 3.2 nM in test [2] (DNA crossover, read-out: Kiu).
